{
  "source": "patent US20230302084A1",
  "about": "“METHODS AND COMPOSITIONS FOR TREATING PERIODONTAL DISEASE” (priority 2020, published 2023)",
  "key": {"TIGK cells [1]": {"test_system": "TIGK cells", "test": "LDH assay (BAR, BAR-EFs)", "format": "cell-based", "experimental": "(§1) Telomerase immortalized gingival keratinocytes (TIGKs) were grown on 12-well collagen-coated plates (Becton Dickinson, Bedford, MA) and cultured using DermaLife K Calcium Free Medium (LifeFactors®) supplemented with penicillin/streptomycin (100 U/mL final concentration; St. Louis, MO), insulin (5 μg/mL), recombinant human (rh), L-glutamine (6 mM), apo-transferrin (5 μg/mL), epinephrine (1 μM), rh TGF-α (0.5 ng/mL), extract P™, calcium chloride (0.06 mM) and hydrocortisone hemisuccinate (100 ng/mL). The cells were incubated at 37° C. in the presence of 5% CO2 for 6 days until they reached 95% confluence.\nLDH Assay: Cell membrane leakage was measured by assessing the release of lactate dehydrogenase (LDH). Extracellular LDH was quantified using a CytoTox96® non-radioactive cytotoxicity assay (Promega, Madison WI) as described by the manufacturer. TIGK cells were plated at density of 6×10^4 cells in 1 mL media per well in a 12-well flat bottom plate, and incubated at 37° C., 5% CO2 for 24 hr. BAR or 10:90 PLGA-PEO BAR-EFs (1.3 or 3.4 μM) were added to cells in triplicate for 24 hr at 37° C. in 5% CO2. Fifty microliters of supernatant from free BAR and BAR-EF-treated (1.3 and 3.4 μM) cells were added to the LDH substrate and incubated at room temperature for 30 min. […] LDH activity was determined by measuring the optical density of the solution at 490 nm. […]"}, "TIGK cells [2]": {"test_system": "TIGK cells", "test": "LDH assay (BAR NPs)", "format": "cell-based", "conditions": "staurosporine, vs control or treated cells", "experimental": "Cell membrane leakage was measured by the release of lactate dehydrogenase (LDH). Extracellular LDH was quantified using a CytoTox96® non-radioactive cytotoxicity assay (Promega, Madison WI) as described by the manufacturer. TIGK cells were plated at density of 6×10^4 cells in 1 mL media per well in a 12-well flat bottom plate, and incubated at 37° C., 5% CO2 for 24 hr. CafA-modified BAR NPs or unmodified BAR NPs (1.3 or 3.4 μM) were added to cells in triplicate for 24 hr at 37° C. in 5% CO2. Fifty microliters of supernatant from CafA-modified BAR NP- and unmodified BAR NP-treated (1.3 and 3.4 μM) cells were added to the LDH substrate and incubated at room temperature for 30 min. The reactions were subsequently terminated by adding 50 μL of stop solution. LDH activity was determined by measuring the optical density of the solution at 490 nm. Cells treated with staurosporine or with medium-only served as positive and negative controls for cell death, respectively."}, "TIGK cells [3]": {"test_system": "TIGK cells", "test": "ATP assay (BAR, BAR-EFs)", "format": "cell-based", "experimental": "as §1\nATP Assay: The metabolic activity of TIGK cells was assessed by measuring total ATP levels using the CellTiter-Glo reagent (Promega, Madison WI), as described by the manufacturer. TIGK cells were seeded at a density of 6×10^4 cells in 1 mL media per well and incubated at 37° C., 5% CO2 for 24 hr in a 12-well flat bottom plate. Cells were then incubated with BAR or 10:90 PLGA-PEO BAR-EFs (1.3 or 3.4 μM) for 24 hr at 37° C. in 5% CO2. Cells were then lysed with 500 μL of 0.1% Triton X-100 for 30 min at 37° C. The lysates were collected and centrifuged at 1,000×g for 10 min at 4° C., and 50 μL of supernatant was mixed with 50 μL of CellTiter-Glo reagent. […] Total luminescence was measured with a Victor 3 luminometer (Perkin-Elmer, Inc). […]"}, "TIGK cells [4]": {"test_system": "TIGK cells", "test": "ATP assay (BAR NPs)", "format": "cell-based", "conditions": "1 ng staurosporine, vs untreated and NP-treated cells", "experimental": "Total ATP levels in cell culture were assessed by using the CellTiter-Glo reagent (Promega, Madison WI), as described by the manufacturer. TIGK cells were seeded at a density of 6×10^4 cells in 1 mL media per well and incubated at 37° C., 5% CO2 for 24 hr in a 12-well flat bottom plate. Cells were then incubated with CafA-modified BAR-NPs or unmodified BAR-NPs (1.3 or 3.4 μM) for 24 hr at 37° C. in 5% CO2. Cells were then lysed with 500 μL of 0.1% Triton X-100 for 30 min at 37° C. The lysates were collected and centrifuged at 1,000×g for 10 min at 4° C., and 50 μL of supernatant was mixed with 50 μL of CellTiter-Glo reagent. Samples were incubated at ambient temperature for 10 min in a black 96-well plate in the dark. Total luminescence was measured with a Victor 3 luminometer (Perkin-Elmer, Inc). Cells incubated with 1 ng of staurosporine or with medium-only served as positive and negative controls for cell death, respectively."}, "sheep erythrocytes": {"test_system": "sheep erythrocytes", "conditions": "1.3, 3.4 μM, 3 hr, relative to H2O-treated cells", "quoted_text": "Hemolytic Assay: A sample of 250 μL of 1% sheep erythrocytes (Rockland Inc, Pennsylvania, USA) was suspended in sterile PBS. […] Water replaced PBS as a positive control for cell hemolysis. The suspension was incubated at 37° C. for 3 hr then centrifuged at 3,500×g. Hemoglobin released due to cell lysis was analyzed by measuring the absorbance at 541 nm."}, "[5]": {"test_system": "pre-established P. gingivalis-S. gordonii biofilms", "test": "Biofilm disruption assay", "format": "cell-based, P. gingivalis (ATCC 33277) / S. gordonii DL-1", "conditions": "3.0 μM, 3 hr on 24 hr biofilms", "experimental": "The resulting P. gingivalis S. gordonii biofilms were then treated for the maximum duration observed for free BAR to disrupt existing biofilms (3 hr). Established biofilms were administered BAR-EFs, free BAR or blank EFs at various concentrations in 1 mL PBS, and processed and analyzed as described above. The mean and standard deviation (SD) between samples were determined and the percent disruption of P. gingivalis adherence was calculated with the following formula: GR sample/GR control."}, "[6]": {"test_system": "P. gingivalis adherence to S. gordonii", "conditions": "3.0 μM", "quoted_text": "P. gingivalis (ATCC 33277) was grown in Trypticase soy broth (Difco Laboratories Inc., Livonia, MI, USA) supplemented with 0.5% (w/v) yeast extract, 1 μg/mL menadione, and 5 μg/mL hemin. The medium was reduced for 24 hr under anaerobic conditions (10% CO2, 10% H2, and 80% N2) and P. gingivalis was subsequently inoculated and grown anaerobically for 48 hr at 37° C. S. gordonii DL-1 was cultured aerobically without shaking in brain-heart infusion broth (Difco Laboratories Inc.) supplemented with 1% yeast extract for 16 hr at 37° C.\nTo assess the effectiveness of BAR-incorporated EFs to prevent the interaction of P. gingivalis with S. gordonii, S. gordonii was harvested from culture and labeled with 20 μL of 5 mg/mL hexidium iodide for 15 min at room temperature. Following incubation, cells were centrifuged to remove unbound fluorescent dye. The bacterial concentration was subsequently measured by the OD (600 nm) from twenty-fold diluted cultures of S. gordonii. […]\nPlates containing P. gingivalis and S. gordonii were subsequently incubated for 24 hr at 37° C. in anaerobic conditions. […] Images were analyzed with Volocity image analysis software (version 6.3; Perkin Elmer, Waltham, MA, USA) to determine the ratio of green to red fluorescence (GR), representing P. gingivalis and S. gordonii, respectively. Control samples were used to subtract background levels of auto-fluorescence. […]"}, "[7]": {"test_system": "P. gingivalis adherence to S. gordonii", "conditions": "cited from earlier work"}, "TIGK cells [8]": {"test_system": "TIGK cells", "test": "MTT assay (BAR, BAR-EFs)", "format": "cell-based", "conditions": "1.3 or 3.4 μM, 24 hr, relative to medium-only treated cells", "experimental": "as §1\nMTT Assay: TIGK cells were seeded in 12-well plates at a density of 6×10^4 cells in 1 mL media per well and incubated for 24 hr to allow for 60-70% confluency and sufficient adhesion. Cells were treated with 1.3 or 3.4 μM of BAR or 10:90 PLGA-PEO BAR-EFs. After 24 hr, 100 μL of MTT solution was added to the media of all samples. After 4 hr incubation at 37° C., 550 μL of lysis buffer was added to the media of each well and plates were incubated for overnight. The absorbance of each well was read at 570 nm, and the sample absorbance was normalized to the absorbance of medium-only treated cells. Cells were treated with 10% DMSO media (100 μL DMSO in 900 μL media) as a positive control for cell death."}, "TIGK cells [9]": {"test_system": "TIGK cells", "test": "Oxidative DNA damage (AP sites)", "format": "cell-based", "conditions": "1.3 or 3.4 μM, 24 hr", "experimental": "as §1\nOxidative DNA Damage: Free radicals and other reactive species are generated from cells under stress and cause oxidative damage to biomolecules. DNA is the most targeted site of oxidative attack. […] OxiSelect™ Oxidative DNA Damage Quantitation Kit (Cell Biolabs, INC., San Diego, CA, USA) was used to quantify AP sites in cells treated with free BAR or 10:90 PLGA-PEO BAR-EFs (1.3 or 3.4 μM) as described by the manufacturer. […] AP sites were determined in genomic DNA by using a biotinylated aldehyde reactive probe (ARP) that reacts specifically with an aldehyde group of AP sites, followed by colorimetric detection using a streptavidin-enzyme conjugate (450 nm). The quantity of AP sites in DNA samples was determined by comparing the absorbance with standard curve of known amount of AP sites."}, "[10]": {"target": "T1, minor fimbriae (Mfal) of P. gingivalis (Porphyromonas gingivalis, UniProt B2RHG1 50-563)", "T1 sequence (looked up)": "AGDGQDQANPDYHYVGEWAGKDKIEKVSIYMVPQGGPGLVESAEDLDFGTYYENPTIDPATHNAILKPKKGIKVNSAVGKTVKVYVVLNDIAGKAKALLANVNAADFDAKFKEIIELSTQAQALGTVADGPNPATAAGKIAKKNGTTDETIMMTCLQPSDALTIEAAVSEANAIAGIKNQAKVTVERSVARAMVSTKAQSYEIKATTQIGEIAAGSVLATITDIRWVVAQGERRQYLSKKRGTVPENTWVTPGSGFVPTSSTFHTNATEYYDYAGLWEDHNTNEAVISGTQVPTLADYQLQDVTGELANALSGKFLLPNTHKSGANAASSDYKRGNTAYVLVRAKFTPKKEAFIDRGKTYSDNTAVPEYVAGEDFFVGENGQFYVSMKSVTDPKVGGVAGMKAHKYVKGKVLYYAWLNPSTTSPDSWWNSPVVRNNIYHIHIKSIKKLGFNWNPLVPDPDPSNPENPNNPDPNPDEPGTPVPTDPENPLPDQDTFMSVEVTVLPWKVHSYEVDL", "test": "cell-based or functional assay"}},
  "data": [
    {"molecule": "CN[C@@H]1C[C@H]2O[C@@](C)([C@@H]1OC)n1c3ccccc3c3c4c(c5c6ccccc6n2c5c31)C(=O)NC4", "note": "[Staurosporine, staurosporine, reference compound]", "values": [
      {"measurement": "LDH released (positive control)", "setting": "TIGK cells [1]; staurosporine, relative to medium-only, free BAR and BAR-EFs", "result": "significantly higher level of LDH"},
      {"measurement": "LDH activity released (positive control)", "setting": "TIGK cells [2]", "result": "significantly higher"},
      {"measurement": "ATP levels (positive control)", "setting": "TIGK cells [3]; 1 ng staurosporine, vs medium-only, free BAR and BAR-EF treated cells", "result": "significantly lower levels of ATP"},
      {"measurement": "ATP levels (positive control)", "setting": "TIGK cells [4]", "result": "significantly lower levels of ATP"}
    ]},
    {"molecule": "H-LEAAPKKVQDLLKKANITVKGAFQLFS-OH [free BAR, NH2-LEA APK KVQ DLL KKA NIT VKG AFQ LFS-COOH]", "values": [
      {"measurement": "LDH released relative to medium-only treated cells", "setting": "TIGK cells [1]; 1.3 or 3.4 μM, 24 hr", "result": "no change in levels of LDH"},
      {"measurement": "Hemolytic activity", "setting": "sheep erythrocytes", "result": "negligible hemolysis"},
      {"measurement": "Biofilm formation disrupted", "setting": "[5]", "result": 66, "unit": "%"},
      {"measurement": "Biofilm formation inhibited", "setting": "[6]", "result": 81, "unit": "%"},
      {"measurement": "IC50", "setting": "[7]; previously determined, read-out: previously determined IC50 of free BAR", "result": 1300, "unit": "nM"},
      {"measurement": "maximum effective concentration", "setting": "[7]; used in in vitro and in vivo studies", "result": 3.4, "unit": "µM"},
      {"measurement": "TIGK cell viability (MTT)", "setting": "TIGK cells [8]", "result": "no loss in viability"},
      {"measurement": "Number of AP sites relative to medium-only treated cells", "setting": "TIGK cells [9]", "result": "no change in the number of AP sites"},
      {"measurement": "ATP levels relative to medium-only treated cells", "setting": "TIGK cells [3]; 1.3 or 3.4 μM, 24 hr", "result": "no decrease in ATP"}
    ]},
    {"molecule": "LEAAPKKVQDLLKKANITVKGAFQLFS", "note": "[BAR (SspB Adherence Region) peptide]", "values": [
      {"measurement": "IC50 of biofilm disruption, BAR-incorporated 10:90 PLGA:PEO EFs", "setting": "[10]", "result": 2000, "unit": "nM"},
      {"measurement": "IC50 of inhibition of biofilm formation, BAR-incorporated 10:90 PLGA:PEO EFs", "setting": "[10]", "result": 1300, "unit": "nM"}
    ]}
  ]
}
